Test results reported in patent US5843954A, “Camptothecin derivatives, preparations thereof and antitumor agents” (priority 1994, dated 1998).
≈ marks a conversion by molar mass, not a printed value. Structures can show the parent of a compound that is named as a salt.

What was measured:
[1] = Antitumor activity for L1210 (life prolonging effect, mouse leukemia transplanted intraperitoneally); format: in vivo; conditions: mouse, in vivo, ip; numerator of therapeutic index; i.p. total dose; read-out: Maximum tolerable dose
Protocol: (§1) 5×10^5 cells of mouse leukemia L1210 were transplanted intraperitoneally to a group of six female CDF1 mice (7 weeks old, body weight 17-19 g). The test compound was administered intraperitoneally on day 1, 5 and 9 and its life prolonging effect was observed.
(§2) In a case of the administration of a test compound as an acid addition salt the test compound was dissolved in water. The total administration amount was 1.56 mg/kg-400 mg/kg. The antitumor activity was expressed by the value (T/C%) wherein T denotes the mean survival days in the drug administered group and C denotes those in the non administered group. In case of equal to or more than 125% the drug is considered to be effective.

mouse leukemia L1210 = test: as above; format: in vivo; conditions: for 40-day survivors: group of six female CDF1 mice; for Therapeutic Index (Maximum tolerable dose/Minimum effective dose): i.p., L1210, CDF1 mice; for minimal effective dose: Mus musculus, L1210, ip, read-out: Minimum effective dose
Protocol: as §1, §2

[2] = Acute toxicity test by intraperitoneal administration; conditions: mouse, in vivo, ip, ICR male mice, 1 week observation
Protocol: Acute toxicity test was conducted by intraperitoneal administration using a group of twenty ICR male mice (4 weeks old, body weight around 20 g).
LD50 value was calculated by the Richfield-Willcokson method from a lethal ratio observing the fate of mice during 1 week after administration of a test compound.

Water solubility = format: physicochemical
[3] = denominator of therapeutic index, i.p. total dose

SMILES | MTD [1] [mg/kg] | Optimum dose: Total dose (mouse leukemia L1210; CDF1 mice, i.p. on day 1, 5 and 9, total dose) [mg/kg] | 40-day survivors (mouse leukemia L1210; at optimum dose) | T/C % (mouse leukemia L1210; at optimum dose, i.p. on day 1, 5 and 9, mean survival days treated/non administered, >=125% effective) [%] | Minimum effective dose (mouse leukemia L1210; [3]) [mg/kg] | Therapeutic Index (Maximum tolerable dose/Minimum effective dose) (mouse leukemia L1210) | LD50 at 168 h [2] [mg/kg] | solubility (Water solubility) [mg/mL] | minimal effective dose (mouse leukemia L1210; [3]) [mg/kg]
CC[C@@](O)(C(=O)O)c1cc2n(c(=O)c1CO)Cc1cc3ccccc3nc1-2 [CPT-Na salt, reference compound] | 60 | 60 | 0/6 | 203 | 10 | 6 | 227 | – | –
CCOc1ccc2nc3c(c(C)c2c1)Cn1c-3cc([C@@](O)(CC)C(=O)NCCN(C)C)c(COC(=O)CCSC)c1=O [Compound C1] | 6.25 | – | 0/6 | – | – | 4 | 164 | > 64 | 1.56
CC[C@@](O)(C(=O)NCCN(C)C)c1cc2n(c(=O)c1COC(=O)CCSC)Cc1c-2nc2cc(Br)ccc2c1C [Compound C2] | 25 | – | 0/6 | – | – | 8 | 241 | > 67 | 3.13
CCC(=O)OCc1c([C@@](O)(CC)C(=O)NCCN(C)C)cc2n(c1=O)Cc1c-2nc2ccc(Cl)cc2c1CC [Compound C3] | 6.25 | – | 1/6 | – | – | > 4 | 186 | 29 (≈ 52.2 mM) | < 1.56
CCCC(=O)OCc1c([C@@](O)(CC)C(=O)NCCN(C)C)cc2n(c1=O)Cc1c-2nc2ccc(Cl)cc2c1CC [Compound C4] | 6.25 | – | 1/6 | – | – | > 4 | 142 | 41 (≈ 72 mM) | < 1.56
CCc1c2c(nc3ccc(Cl)cc13)-c1cc([C@@](O)(CC)C(=O)NCCN(C)C)c(COC(=O)CCSC)c(=O)n1C2 [Compound C5] | 6.25 | – | 3/6 | – | – | > 4 | 168 | 21 (≈ 34.9 mM) | < 1.56
CCc1c2c(nc3ccc(Br)cc13)-c1cc([C@@](O)(CC)C(=O)NCCN(C)C)c(COC(=O)CCSC)c(=O)n1C2 [Compound C6] | 6.25 | – | 1/6 | – | – | > 4 | 116 | 25 (≈ 38.7 mM) | < 1.56
CCc1c2c(nc3ccc(C)cc13)-c1cc([C@@](O)(CC)C(=O)NCCN(C)C)c(COC(=O)CCSC)c(=O)n1C2 [Compound C7] | 100 | – | 5/6 | – | – | 32 | 234 | 21 (≈ 36.2 mM) | 3.13
CCC(=O)OCc1c([C@@](O)(CC)C(=O)NCCN(C)C)cc2n(c1=O)Cc1c-2nc2cc(F)ccc2c1CC [Compound C8] | 12.5 | – | 4/6 | – | – | 8 | 124 | 20 (≈ 37.1 mM) | 1.56
CCCC(=O)OCc1c([C@@](O)(CC)C(=O)NCCN(C)C)cc2n(c1=O)Cc1c-2nc2cc(F)ccc2c1CC [Compound C9] | 12.5 | – | 2/6 | – | – | 8 | 152 | > 59 | 1.56
CCc1c2c(nc3cc(F)ccc13)-c1cc([C@@](O)(CC)C(=O)NCCN(C)C)c(COC(=O)CCSC)c(=O)n1C2 [Compound C10] | 12.5 | – | 1/6 | – | – | 8 | 146 | > 62 | 1.56
CCc1c2c(nc3cc(F)ccc13)-c1cc([C@@](O)(CC)C(=O)NCCN(C)C)c(COC(=O)c3ccc(OC)cc3)c(=O)n1C2 [Compound C11] | 50 | – | 0/6 | – | – | 8 | 146 | 8 (≈ 13 mM) | 6.25
CCc1c2c(nc3cc(Cl)ccc13)-c1cc([C@@](O)(CC)C(=O)NCCN(C)C)c(COC(=O)CCSC)c(=O)n1C2 [Compound C12] | 25 | – | 1/6 | – | – | – | 284 | > 64 | 6.25
CCC(=O)OCc1c([C@@](O)(CC)C(=O)NCCN(C)C)cc2n(c1=O)Cc1c-2nc2cc(F)c(F)cc2c1CC [Compound C13] | – | – | 0/6 | – | – | – | 67.6 | > 59 | –
CCCC(=O)OCc1c([C@@](O)(CC)C(=O)NCCN(C)C)cc2n(c1=O)Cc1c-2nc2cc(F)c(F)cc2c1CC [Compound C14] | – | – | 1/6 | – | – | – | 98.3 | > 60 | –
CCc1c2c(nc3cc(F)c(F)cc13)-c1cc([C@@](O)(CC)C(=O)NCCN(C)C)c(COC(=O)CCSC)c(=O)n1C2 [Compound C15] | – | – | 0/6 | – | – | – | 85.2 | > 64 | –
CCc1c2c(nc3cc(F)c(F)cc13)-c1cc([C@@](O)(CC)C(=O)NCCN(C)C)c(COC(=O)c3ccc(OC)cc3)c(=O)n1C2 [Compound C16] | 12.5 | – | 0/6 | – | – | 2 | 65.6 | 6 (≈ 9.45 mM) | 6.25
CCC(=O)OCc1c([C@@](O)(CC)C(=O)NCCN(C)C)cc2n(c1=O)Cc1c-2nc2cc(Cl)c(Cl)cc2c1CC [Compound C17] | 6.25 | – | 2/6 | – | – | 4 | 112 | > 64 | 1.56
CCCC(=O)OCc1c([C@@](O)(CC)C(=O)NCCN(C)C)cc2n(c1=O)Cc1c-2nc2cc(Cl)c(Cl)cc2c1CC [Compound C18] | 3.13 | – | 0/6 | – | – | > 2 | 92.3 | 35 (≈ 58 mM) | < 1.56
CCc1c2c(nc3cc(F)c(OC)cc13)-c1cc([C@@](O)(CC)C(=O)NCCN(C)C)c(COC(=O)CCSC)c(=O)n1C2 [Compound C22] | – | – | 0/6 | – | – | – | 68.6 | > 65 | –
CC=CC(=O)OCc1c([C@@](O)(CC)C(=O)NCCN(C)C)cc2n(c1=O)Cc1c-2nc2ccc(O)cc2c1CC [Compound C34] | – | – | – | – | – | – | – | > 59 | –
CCc1c2c(nc3ccc(C)cc13)-c1cc([C@@](O)(CC)C(=O)NCCN(C)C)c(COC(=O)c3ccncc3)c(=O)n1C2 [Compound C39] | 50 | – | 3/6 | – | – | 16 | 320 | – | 3.13
CCc1c2c(nc3ccc(Cl)cc13)-c1cc([C@@](O)(CC)C(=O)NCCN(C)C)c(COC(=O)c3ccncc3)c(=O)n1C2 [Compound C40] | 6.25 | – | 1/6 | – | – | 4 | 213 | – | 1.56
CCc1c2c(nc3cc(F)ccc13)-c1cc([C@@](O)(CC)C(=O)NCCN(C)C)c(COC(=O)c3ccncc3)c(=O)n1C2 [Compound C41] | 25 | – | 2/6 | – | – | > 16 | 220 | – | < 1.56
CCc1c2c(nc3cc(F)c(C)cc13)-c1cc([C@@](O)(CC)C(=O)NCCN(C)C)c(COC(=O)c3ccncc3)c(=O)n1C2 [Compound C42] | 12.5 | – | 2/6 | – | – | > 8 | 310 | – | 1.56
CCc1c2c(nc3cc(F)c(OC)cc13)-c1cc([C@@](O)(CC)C(=O)NCCN(C)C)c(COC(=O)c3ccncc3)c(=O)n1C2 [Compound C43] | 6.25 | – | 2/6 | – | – | > 4 | 165 | – | 1.56
CCc1c2c(nc3ccc(O)cc13)-c1cc([C@@](O)(CC)C(=O)NCCN(C)C)c(COC(C)=O)c(=O)n1C2 [Compound C45] | 400 | – | 0/6 | – | – | 4 | 376 | – | 100
CCc1c2c(nc3ccc(O)cc13)-c1cc([C@@](O)(CC)C(=O)NCCN(C)C)c(COC(=O)C(C)C)c(=O)n1C2 [Compound C46] | 400 | – | 0/6 | – | – | 16 | 478 | – | 25
CCOCCC(=O)OCc1c([C@@](O)(CC)C(=O)NCCN(C)C)cc2n(c1=O)Cc1c-2nc2ccc(O)cc2c1CC [Compound C47] | 200 | – | 0/6 | – | – | 4 | 471 | – | 50
CCc1c2c(nc3ccc(OC(C)=O)cc13)-c1cc([C@@](O)(CC)C(=O)NCCN(C)C)c(COC(=O)c3ccc(F)cc3)c(=O)n1C2 [Compound C48] | 200 | – | 0/6 | – | – | 8 | 418 | – | 25
